From patent US6566375B1, “Elevation of HDL cholesterol by 4-[(aminothioxomethyl)-hydrazono]-N-(substituted)-4-arylbutanamides” (Wyeth, priority 1997, dated 2003)

Legend:
HDL cholesterol = test: Cholesterol fed rat, in vivo assay of serum HDL cholesterol; set-up: species or system Male Sprague-Dawley rats; details: test substance mixed in diet for 8 days, serum HDL cholesterol by FPLC
Experimental: The compounds are tested in vivo in rats fed cholesterol-augmented rodent chow for 8 days according to the test protocol and blood from the rats analyzed for HDL cholesterol.
In Vivo Assa.: Male Sprague-Dawley rats weighing 200-225 g are housed two per cage and fed Purina Rodent Chow Special Mix 5001-S supplemented with 0.25% cholic acid and 1.0% cholesterol and water ad libitum for 8 days. Each test substance is administered to a group of six rats fed the same diet with the test diet mixed in as 0.005-0.1% of the total diet. Body weight and food consumption are recorded prior to diet administration and at termination. Typical doses of the test substances are 5-100 mg/kg/day.
At termination, blood is collected from anesthetized rats and the serum is separated by centrifugation. Total serum cholesterol is assayed using the Sigma Diagnostics enzymatic kit for the determination of cholesterol, Procedure No. 352, modified for use with ninety-six well microtiter plates. After reconstitution with water the reagent contains 300 U/I cholesterol oxidase, 100 U/I horse radish peroxidase, 0.3 mmoles/l of 4-aminoantipyrine and 30.0 mmoles/l of p-hydroxybenzenesulfonate in a pH 6.5 buffer. In the reaction cholesterol is ;oxidized to produce hydrogen peroxide which is used to form a quinoneimine dye. The concentration of dye formed is measured spectrophotometrically by absorbance at 490 nm after incubation at 25° C. for 30 minutes. The concentration of cholesterol was determined for each serum sample relative to a commercial standard from Sigma.
HDL cholesterol concentrations in serum are determined by separation of lipoprotein classes by fast protein liquid chromatography (FPLC) by a modification of the method of Kieft et al., J. Lipid Res., 32 (1991) 859-866. 25 μl of serum is injected onto Superose 12 and Superose 6 (Pharmacia), in series, with a column buffer of 0.05 M Tris (2-amino-2-hydroxymethyl-1,3-propanediol) and 0.15 M sodium chloride at a flow rate of 0.5 ml/min. The eluted sample is mixed on line with Boehringer-Mannheim cholesterol reagent pumped at 0.2 ml/min. The combined eluents are mixed and incubated on line through a knitted coil (Applied Biosciences) maintained at a temperature of 45° C. The eluent is monitored by measuring absorbance at 490 nm and gives a continuous absorbance signal proportional to the cholesterol concentration. The relative concentration of each lipoprotein class is calculated as the per cent of total absorbance. HDL cholesterol concentration, in serum, is calculated as the per cent of total cholesterol as determined by FPLC multiplied by the total serum cholesterol concentration.

| melting point | Structure (SMILES) | % Increase in HDL (Dose) (HDL cholesterol; 100 mg/kg) | % Increase in HDL (Dose) (HDL cholesterol; 50 mg/kg) | % Increase in HDL (Dose) (HDL cholesterol; 82 mg/kg) |
| --- | --- | --- | --- | --- |
| 64 to 68 °C | CCCCNC(=O)CCC(=NNC(N)=S)c1ccccc1 [Example 1, 2-(4-Butylamino-4-oxo-1-phenyl-butylidene)-hydrazinothiocarboxamide] | 56% | – | – |
| 66 to 71 °C | CC(C)NC(=O)CCC(=NNC(N)=S)c1ccccc1 [Example 2, 4-[(Aminothioxomethyl)hydrazono]-N-(1-methylethyl)-4-phenyl-butanamide] | 61.7% | – | – |
| 186 to 188 °C | NC(=O)CCC(=NNC(N)=S)c1ccccc1 [Example 3, 4-[(Aminothioxomethyl)-hydrazono]-4-phenylbutanamide] | – | 36.4% | – |
| – | NC(=S)NN=C(CCC(=O)NCc1ccccc1)c1ccccc1 [Example 4, 4-[(Aminothioxomtethyl)-hydrazono]-N-benzyl-4-phenylbutanamide] | – | 49.5% | – |
| – | CNC(=O)CCC(=NNC(N)=S)c1ccccc1 [Example 5, 4-[(Aminothioxomrethyl)-hydrazono]-N-methyl-4-phenylbutanamide] | 43.3% | – | – |
| 89 to 92 °C | NC(=S)NN=C(CCC(=O)NC1CCCCC1)c1ccccc1 [Example 6, 4-[(Aminothioxomethyl)-hydrazono]-N-cyclohexyl-4-phenylbutanamide] | – | – | 28.1% |
| 173 to 175 °C | CN(C)C(=O)CCC(=NNC(N)=S)c1ccccc1 [Example 7, 4-[(Aminothioxomethyl)hydrazono]-N,N-dimethyl-4-phenylbutanamide] | – | 56.2% | – |
| 181 to 183 °C | NC(=S)NN=C(CCC(=O)N1CCCCC1)c1ccccc1 [Example 8, 1-[4-[(Aminothioxomethyl)hydrazono]-1-oxo-4-phenylbutyl]piperidine] | – | 52.8% | – |
| 58 to 65 °C | CC(C)CCCC(C)NC(=O)CCC(=NNC(N)=S)c1ccccc1 (stereo not shown) [Example 9, 4-[(Aminothioxomethyl)-hydrazono]-N-(1,5-dimethylhexyl)-4-phenyl-butanamide] | – | 40.4% | – |
